In the test the test system is NIH3T3-HGL HSF-1 response element luciferase, 48 h. As to the kind of experiment: HSF-1 reporter activators over prolonged exposure, confirmation, cell-based, mouse, luciferase, cherry-pick, dose (AID 602296).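 Note: test compounds applied by themselves with no MG132 co-treatment.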

Molecules are shown by their SMILES. Records with an inconclusive call do not appear. Activity calls are given as the source filed them.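 Rule for the calls: active = fitted activation curve crossing 40% at a concentration no higher than the sample's top valid tested dose; inconclusive = flat fitted curve at 30% to 70% activation, or poor curve fit; inactive = signal decrease, flat curve within 30%, or the rest.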

Consider `COc1cccc(C2C(C(N)=O)=C(C)Nc3nc(-c4cccc(Cl)c4)nn32)c1` (stereo unspecified), for which the AC40 is > 26 µM (inactive).
With `Cc1ccccc1CSc1nsc(N)n1` the figure was 16.5 µM; with `COC(=O)[C@@H](Cc1c[nH]c2ccccc12)NC(=O)c1ccc2c(c1)OCO2`, 3.28 µM; with `CN(C)CCCn1c(N)c(C#N)c2nc(C#N)c(C#N)nc21`, > 12 µM (inactive).
Take `CC(C)NC(=O)CN(C(=O)CCC(=O)Nc1nccs1)c1ccc2c(c1)OCO2`: the AC40 is > 26 µM (inactive).
On to `CNc1nc(SC(C)C(=O)Nc2ccc(Cl)c(Cl)c2)nc(N2CCOCC2)n1` (stereo unspecified), for which the AC40 was > 26 µM (inactive).
Next, `COC(=O)C(C)Sc1ncnc2c1nnn2-c1ccc(F)cc1` (stereo unspecified): 5.57 µM; `Cc1noc(NS(=O)(=O)c2ccc(NC(=O)c3oc4ccc(F)cc4c3C)cc2)c1C`: > 26 µM (inactive); `COc1ccc(/C=C(\NC(=O)c2ccccc2)C(=O)N/N=C/c2sccc2C)cc1`: > 26 µM (inactive).
With `O=C(NCCN1CCN(C(=O)c2ccc(Br)cc2)CC1)c1ccc(Br)cc1` the figure was > 26 µM (inactive); with `O=C(O)CSc1nc2ccccc2nc1Cc1ccccc1F`, 9.82 µM.
With `COc1cccc(CNC(=O)Cn2nc(C)c([N+](=O)[O-])c2C)c1` the figure was > 26 µM (inactive).
On to `Cc1nc(-c2ccc(Cl)cc2)sc1C(=O)CBr`, for which the AC40 is 11.5 µM.
In the case of `COc1ccc(C2C3=C(CCCC3=O)N(CC(=O)O)C3=C2C(=O)CCC3)cc1Cl`, the AC40 is > 26 µM (inactive).
Next, `S=C1NC(c2ccccc2)=NCN1c1ccc(Br)cc1`: 8.41 µM; `Cn1c(Cn2nnc3ccccc32)nnc1SCC(=O)c1ccccc1F`: 20.6 µM.
For the molecule `CC1CCCCN1C(=O)COc1ccccc1F` (stereo unspecified), the AC40 was 21.2 µM.
With `CC(C)(C)N(NS(=O)(=O)c1ccc(F)cc1)c1ccccc1` the figure was > 26 µM (inactive).
`CCOC(=O)C1=NN(C(=O)c2ccccc2)C(O)(c2ccc(C)cc2)C1` (stereo unspecified): the AC40 was 8.91 µM.
On to `O=C(c1ccc[nH]c1=S)N1CCN(S(=O)(=O)c2ccc(Br)cc2Cl)CC1`, for which the AC40 is > 26 µM (inactive).
Consider `O=C(Nc1cccn(Cc2c(Cl)cccc2Cl)c1=O)c1ccccc1Cl`, for which the AC40 was > 26 µM (inactive).
With `CN(C)C(=O)c1ccc(=O)n(Cc2ccc(Cl)cc2Cl)c1` the figure was > 26 µM (inactive); with `CCOc1cc(C(=S)N2CCOCC2)ccc1OS(=O)(=O)c1ccc(C)cc1`, > 26 µM (inactive); with `Cc1cccc(N2CCN(C(=O)CSCc3c(C)noc3C)CC2)c1C`, 20.1 µM.
Regarding `CCN(CC)C(=O)CSc1ncnc2sc(C)c(C)c12`, the AC40 is > 26 µM (inactive).
With `COc1ccccc1/C=C1/SC(=S)N(C(C)C(=O)NC2C=CS(=O)(=O)C2)C1=O` (stereo unspecified) the figure was > 26 µM (inactive); with `Cc1ccc(CNc2c(C=O)c(=O)[nH]c3ccccc23)cc1`, > 26 µM (inactive).
In the case of `Cc1nc2ccccc2nc(C)c1=NOCc1ccccc1Cl`, the AC40 is 3.97 µM.
For the molecule `CCOc1ccc2nc(COC(=O)c3cccc([N+](=O)[O-])c3)c(C(C)=O)[n+]([O-])c2c1`, the AC40 is > 26 µM (inactive).
For `CC(C)n1cc(/C=N/NC(=O)COc2cccc3cccnc23)c2ccccc21`, the AC40 is > 26 µM (inactive).
With `CCOc1cc(N2CCOCC2)c(OCC)cc1NC(=O)Cc1cccc2ccccc12` the figure was > 26 µM (inactive); with `COc1ccc(C2/C=C\CN(S(=O)(=O)/C=C/c3ccccc3)[C@H](Cc3ccccc3)C(=O)N2Cc2ccc(F)cc2)cc1` (stereo partly specified), > 26 µM (inactive).
With `O=C(O)C1CCCCC1C(=O)Nc1ccc2c(c1)CCC2` (stereo unspecified), the AC40 was 5.08 µM.
Regarding `Nc1ncnc2c1CCC2`, the AC40 is > 26 µM (inactive).
With `Cc1ccc(O)c(CNc2nccs2)c1` the figure was 24.5 µM; with `CCCCC(=O)OCC(=O)c1[nH]c(C)c(C(=O)OCC)c1C`, 7.5 µM.
As to `CSc1ccc(Cl)c(C(=O)OCC(=O)N(C)CCC#N)c1`, the AC40 is > 26 µM (inactive).
With `C/C(=N\OC(=O)c1ccc(F)cc1)c1ccc(F)c(F)c1` the figure was 24.7 µM.
Next, `C/C(Cn1cnc([N+](=O)[O-])n1)=N\NC(=O)c1ccccc1F`: 2.7 µM; `CCc1nnc(N/N=C/c2ccccc2Cl)n1N`: 21.9 µM; `S=C(Nc1ccc(Cl)cc1)Nc1cccc2cnccc12`: > 26 µM (inactive).
Consider `O=C1C2CC=CCC2C(=O)N1Cc1nnc(-c2ccc(Cl)cc2)o1` (stereo unspecified), for which the AC40 was 6.68 µM.
Consider `Cc1onc(-c2ccccc2)c1C(=O)OCc1nnc(-c2ccccc2)o1`, for which the AC40 is > 26 µM (inactive).
In the case of `CCC(=O)N1CCN(c2ccc(NC(=O)COc3ccc(C)cc3C)cc2)CC1`, the AC40 was > 26 µM (inactive).
With `Cc1ccc(NC(=O)N2CCCC2C(=O)Nc2c(C)cc(C)cc2C)cc1` (stereo unspecified) the figure was > 26 µM (inactive); with `O=C(CN1C(=O)/C(=C\c2cccc(Cl)c2)Sc2ccccc21)NCCCN1CCOCC1`, > 12 µM (inactive); with `CCCCOc1ccc(-c2nc(/C=N/c3nccs3)c(O)o2)cc1`, 18.4 µM.
Next, `O=C(O)c1c(Cl)c(Cl)c(Cl)c(Cl)c1C(=O)N1CCCC1`: > 26 µM (inactive); `Cc1nonc1OCCNCCNc1ccc([N+](=O)[O-])cc1Cl`: > 26 µM (inactive); `Cc1ccc2nc(SCC(=O)NCc3ccc(F)cc3)[nH]c2c1`: > 26 µM (inactive).
As to `CC(=O)SC(C[N+](=O)[O-])c1cn(C(C)=O)c2ccccc12` (stereo unspecified), the AC40 is > 26 µM (inactive).
`COc1ccc(/C=C/C(=O)N(C(C)C)C(C)C)cc1Br`: the AC40 was 6.82 µM.
As to `CCCn1c(SCC(=O)c2cc(OC)ccc2OC)nnc1C(C)C`, the AC40 is > 26 µM (inactive).
As to `Cc1ncc([N+](=O)[O-])n1CCOC(=O)c1cc(Cl)cc(Cl)c1N`, the AC40 was > 26 µM (inactive).
Next, `CCOC(=O)c1c(C)c(C(=O)Nc2ccc3c(c2)OCO3)c(C)n1C`: 24.1 µM; `CC(C)(C)c1[nH]ncc1[N+](=O)[O-]`: > 26 µM (inactive).
Next, `O=C(OCc1csc(-c2ccccc2)n1)c1cccs1`: 0.901 µM; `CCOP(=O)(C(NC(=O)c1ccccc1Cl)=C(Cl)Cl)c1ccccc1` (stereo unspecified): > 26 µM (inactive).
With `S=c1[nH]nc(-c2ccccc2)n1/N=C/c1ccc(-c2ccccc2Cl)o1` the figure was > 12 µM (inactive); with `Cc1ccc(SCCCCN2CCOCC2)cc1`, 23.9 µM; with `CCSc1nnc(NC(=O)c2cccnc2Cl)s1`, 6.92 µM.
For `COc1ccc(S(=O)(=O)N2CCC(C(=O)NCc3cccnc3)CC2)cc1C`, the AC40 is > 26 µM (inactive).
Consider `Cc1ccc(NC(=O)c2cc3c(=O)oc4ccccc4c3s2)nc1`, for which the AC40 was > 26 µM (inactive).
On to `Cc1cc(C)n2nc(N)c(N=Nc3cccc(Cl)c3)c2n1`, for which the AC40 is > 26 µM (inactive).
Take `CCc1nc2c(sc3nc4c(cc32)COC(C)(C)C4)c(=O)n1Cc1ccco1`: the AC40 is > 26 µM (inactive).
Next, `Cc1nc(S(=O)(=O)c2ccc(Cl)cc2)c(NCc2ccccc2)o1`: > 26 µM (inactive).

The values are drawn from PubChem BioAssay AID602296 (Broad Institute, 2012).
